Data set [1] can be described thus: 1H NMRD profiles (water proton relaxivity). To be noted: for D: 25° C., pH 6.9, fits of NMRD profile and 17O NMR. Format: physicochemical. From the text: (§1) Measuring the relaxation rates of an abundant nuclear species as a function of the magnetic field over a wide range is called relaxometry. A relaxometry profile is a plot of the nuclear magnetic relaxation rate, usually 1/T1, as a function of the Larmor frequency or the magnetic field. This profile is also called a Nuclear Magnetic Resonance Dispersion (NMRD) profile. Compared with the NMRD profile, the prominent advantage of the ^17O NMR technique is that it allows the accurate determination of the water exchange rate 1/τM. This is a consequence of the oxygen nucleus being closer to the paramagnetic centre when bound in the inner-sphere, wherein the outer-sphere contributions to the relaxation rates are negligibly small. With the help of NMRD profiles, ^17O NMR measurements, and the Soloman-Bloemnergen-Morgan theory, several important parameters, such as τM, τR, τv, Δ^2 and τH, can be measured.
Water proton nuclear magnetic resonance dispersion NMRD profile is used to record the longitudinal water proton relaxation rates as a function of magnetic fields. The method is, in principle, sensitive to all of the parameters that influence relaxivity. […] The relaxometer worked under complete control with an absolute uncertainty in 1/T1 of ±2%. The NMRD profiles were measured using 1-2 mM solutions of the complexes.

Data set [2] in a line: Variable-temperature 17O NMR transverse relaxation (water exchange). Format: physicochemical. The conditions noted are these: for TM (derived from VT 17O NMR spectroscopy): 25° C., pH 6.9; for exchange lifetime τM of the inner-sphere coordinated water molecules: 298 K (25° C.), 2.12 T.
Excerpt: as §1
The variable-temperature ^17O NMR measurements were recorded on a JEOL EX-90 (2.1 T) spectrometer that was equipped with a 5 mm probe, by using a D2O external lock. The experimental settings were: spectral width of 10000 Hz, pulse width of 7 μs, acquisition time of 10 ms, 1000 scans, and no sample spinning. Solutions containing 2.6% of ^17O isotope were used. The observed transverse relaxation rates (R2obs^0) were calculated from the signal width at half height.

The test system of data set [3] is MIHA cells. In words: AO/EB staining, laser scanning confocal microscopy of cell morphology. Format: cell-based. To be noted: 10 μM, up to 24 h of incubation. How it is done: MIHA cells in the absence (control) and presence of Gd-DOTA (10 μM), Gd-DO3A (10 μM), and GdL1 (10 μM) incubated at 37° C. and 5% CO2, 95% air in a humidified incubator for 1 h, 2 h, 8 h, and 24 h, respectively.
Based on cell morphology and cell membrane integrity, normal, necrotic, and apoptotic cells can be distinguished using laser confocal microscopy. FIG. 22 gives the cell morphology in the absence and presence of Gd-DOTA (10 μM), Gd-DO3A (10 μM), and GdL1 (10 μM) at various time intervals after the incubation. In the absence or presence of the Gd^3+ complexes, the nuclei of the living cells were stained as bright blue spots in the nucleus.

Data set [4] deals with liver parenchyma. The experiment in a line: In vivo MRI, hepatic intensity enhancement (T1-weighted). The arrangement: species or system male Sprague-Dawley (SD) rats. To be noted: rat. As for the experimental part:
(§2) To study the MRI contrast and biodistribution behavior of gadolinium complexes […] pendant crown ethers, experiments were performed using male Sprague-Dawley (SD) rats that weighted 150-180 g, and were housed at the Wuhan Institute of Physical and Mathematics of the Chinese Academy of Sciences (Wuhan, Hubei Province, China). All procedures conformed to the institutional guidelines for animal welfare. The rat was injected via the femoral vein with 1 mL saline solution of GdL1 in concentrations of 0.1, 0.033, and 0.02 mM/kg, which are the standard dosage, one third and one fifth of the standard dosage used in clinic currently. MR imaging was performed on a 4.7 T Bruker BIO-SPEC-47/30 MRI scanner with a custom spiral surface coil. The animal was scanned in the prone position in the MRI experiment. […] The total duration of the dynamic scanning lasted up to 400 min after the administration, with an image every 4 min. A water tube was placed in the field of view as a phantom reference. The intensity enhancement (IE) of the region of interest (RI) at time point t is expressed by IE=100% (RI(t)-RI(0))/RI(0) where RI(t) corresponds to the normalized signal intensity as measured at time point, t and RI(0) is the normalized signal intensity precontrast.

The conditions of data set [5]: 20 MHz, 298 K; cited from earlier work.
For data set [6] the following is noted: 298 K; cited from earlier work.
The conditions of data set [7]: complex with Gd^3+; cited from earlier work.
The subject of data set [8] is kidney cortex. The experiment in a line: In vivo MRI, renal intensity enhancement (T1-weighted). Further details: species or system male Sprague-Dawley (SD) rats. To be noted: rat, 0.1 mmol/kg. How it is done: as §2
The test system of data set [9] is MIHA cells. In words: In vitro cytotoxicity, cell proliferation assay (MTT / XTT-based). The conditions noted are these: 1×10^−2 M, 24 h incubation. How it is done:
To further investigate the potential ability of GdL1 as an NMRI contrast agent, its cytotoxicity was measured by MTT assay. The toxicity of GdL1 was determined from the dose-dependence of surviving cells after exposure to this Gd^3+ complex at different time intervals. For comparison, the cytotoxicities of Gd-DOTA and Gd-DO3A were measured under the same conditions.
To evaluate the toxicity of prepared Gd^3+ complexes, a colorimetric assay (XTT-based) for the non-radioactive quantification of cell proliferation was applied. In the cell proliferating process, the added tetrazolium salt XTT was cleaved to a formazan dye by metabolically active cells, and the quantification of cell growth was achieved by the variation of the absorbance at 492 nm. Seed MIHA Cells at a concentration of 5×10^3 cells/well (tissue culture grade, 96 wells, flat bottom) were added to Gd^3+ complexes (0.625-10 mM) in a humidified atmosphere (37° C., 6.5% CO2). Different concentrations of drugs were adjusted by performing serial dilution. The incubation period of the cell culture ranged from 1, 2, 8, and 24 hrs. XTT dye at a concentration of 5 mg/mL (sigma, St. Louis, Mo.) was added, and the plates were incubated for 12 h in a moist chamber at 37° C. The optical density was determined by eluting the dye with dimethyl sulfoxide, and the absorbance was measured at 570 nm. […]
Background: Tetrazolium dyes change colour on reduction, which living cells bring about.

A short description of data set [10]: Luminescence lifetime measurements of Tb complexes for hydration number q. Format: physicochemical. To be noted: for kH2O, absolute emission depopulation rate constant in H2O: pH 6.9 (0.1 M Tris/HCl), 298 K, ±10%; for inner-sphere coordinated (bound) water molecules, luminescent measurements: pH 6.9. From the text:
As previously mentioned, inner-sphere proton relaxivity is linearly proportional to the number of water molecules q that are directly coordinated to the Gd^3+ center. However, there is a trade-off between the q value and toxicity. […] It is noteworthy that there is no direct method of measuring the hydration number. The two commonly used indirect methods are as follows: (1) Lanthanide-induced shift (LIS) methods (see, Alpoim et al., J. Chem. Soc., Dalton Trans., 1992, 463). For paramagnetic Ln^3+ ions, the plot of the observed ^17O shift in Ln^3+ chelate solution versus the complex concentration gives a straight line, with the slope being proportional to its hydration number. (2) The lanthanide luminescence method. According to the Horrocks equation, the q value can be calculated by the emission rate constants for the depopulation of Tb^3+ or Eu^3+ complexes measured in H2O and D2O (see, Beeby at al., J. Chem. Soc., Perkin Trans. 2, 1999, 493). With this method, the q values of the Gd^3+ complexes in aqueous solution can be measured indirectly by their corresponding Tb^3+ or Eu^3+ complexes, because of the very similar coordination behavior between these three lanthanide ions.
Luminescence lifetime measurements were all obtained on a Perkin-Elmer LS 50B spectrofluorimeter with a 420 nm cut-off filter. The concentration of the complex was 1×10^−5˜1×10^−4 mol dm^−3. The emission of Tb^3+ or EU^3+ complexes was monitored at […]. Gd^3+ is a neighbor of Eu^3+ and Tb^3+ with a nearly identical ionic radius, and thus their chemistries are virtually identical. Therefore, the Horrocks equation for determining the number of coordinated water molecules q for Eu^3+ and Tb^3+ is still valid for the calculation of the q value of Gd^3+. In general, the number of coordinated water molecules q can be determined by the measurement of the luminescent lifetime of the complexes separately in H2O and D2O by application of the Horrocks equation.
qcorr=A(kH2O−kD2O−a)
where k is the constant for depopulation (reciprocal of luminescent lifetime), and A is a proportionality constant that signifies the sensitivity of the lanthanide ion to vibronic quenching by OH oscillators. a is correlation value for the consideration of the outer-sphere water molecules.

Each structure is given as a SMILES string. Some results are limits rather than exact numbers.

As to `O=C([O-])CN1CCNCCN(CC(=O)[O-])CCN(CC(=O)[O-])CC1.[Gd+3]` [Gd-DO3A, reference compound], the D in data set [1] is recorded as 2.24E−5 cm^2s^−1. Moreover, in [2], the “TM (derived from VT 17O NMR spectroscopy)” value (“TM” for short) was 160 ns and the “exchange lifetime τM of the inner-sphere coordinated water molecules” value (“exchange lifetime τM” for short) was determined as 160 ns. In data set [3], the “apoptotic or necrotic cells (cell morphology, AO/EB)” value was “no obvious apoptotic or necrotic cells were found”.
The molecule `O=C([O-])CN1CCN(CC(=O)[O-])CCN(CC(=O)O)CCN(CC(=O)[O-])CC1.[Gd+3]` [Gd-DOTA, reference compound] displayed a D in data set [1] of 2.24E−5 cm^2s^−1. In [2], the “TM” value is 300 ns and the “exchange lifetime τM” value came to 245 ns. Also, the “maximal hepatic IE” value in data set [4] (0.02 mmol/kg (1/5 of standard dose)) was “no remarkable hepatic IE was detected”. Also, the “apoptotic or necrotic cells (cell morphology, AO/EB)” value in [3] is recorded as “no obvious apoptotic or necrotic cells were found”. Moreover, the “relaxivity r1p (typical values)” value in [5] was 4.74 mM⁻¹ s⁻¹. Besides, the “bound water molecular resident lifetime τM (typical values)” value in data set [6] was “about 244 ns”.
The molecule `O=C([O-])CN(CCN(CC(=O)[O-])CC(=O)O)CCN(CC(=O)[O-])CC(=O)O.[Gd+3]` [Gd-DTPA] returned a D in data set [1] of 2.24E−5 cm^2s^−1. The “TM” value in data set [2] is listed as 250 ns. Also, the “relaxivity r1p (typical values)” value in data set [5] was 4.69 mM⁻¹ s⁻¹. For the same molecule, the “bound water molecular resident lifetime τM (typical values)” value in [6] is roughly 303 ns. The “log K (K = formation constant of the metal complex)” value in data set [7] is on record as 24.6.
`O=C([O-])CN1CCN(CCN2CCOCCOCCOCCOCC2)CCN(CC(=O)[O-])CCN(CC(=O)[O-])CC1.[Gd+3]` [GdL1]: in data set [1], the “inner-sphere coordinated water molecules from 1H NMRD profiles” value was “two” and the D is 2.24E−5 cm^2s^−1. Also, in data set [2], the “TM” value was 55 ns and the “exchange lifetime τM” value was 55 ns. Moreover, the “renal IE still preserved 250 minutes after injection” value in data set [8] was 40%. In addition, in data set [4] (0.03 mmol/kg), the “time after injection of maximal hepatic IE” value fell in the range of 60 to 100 min. Besides, the “hepatic IE on plateau” value in data set [4] (0.033 mmol/kg) is greater than 60%. The “resident lifetime in hepatic tissue” value in [4] (0.1 mmol/kg) was greater than 4 h. Further, the “viability of the MIHA cells” value in data set [9] is recorded as “not affected obviously”. In addition, the “apoptotic or necrotic cells (cell morphology, AO/EB)” value in data set [3] is “no obvious apoptotic or necrotic cells were found”.
For the molecule `O=C([O-])CN1CCN(CCOCC2COCCOCCOCCOCCO2)CCN(CC(=O)[O-])CCN(CC(=O)[O-])CC1.[Gd+3]` (stereo not drawn) [GdL2], in data set [1] (20 MHz, pH 10.0), the “overall relaxivity r1p” value is 4.21 mM⁻¹ s⁻¹. For the same molecule, the D in data set [1] stood at 2.24E−5 cm^2s^−1. In data set [2], the “TM” value is 116 ns and the “exchange lifetime τM” value is recorded as 116 ns. Besides, in [4] (0.1 mmol/kg), the “level of hepatic enhancement maintained for more than 4 h” value is greater than 60% and the “time for which hepatic intensity enhancement was maintained” value was “more than 4 h”.
`O=C([O-])CN1CCN(CC(=O)[O-])CCN(CC(=O)N2CCOCCOCCN(Cc3ccc4ccccc4n3)CCOCCOCC2)CCN(CC(=O)[O-])CC1.[Gd+3]` [GdL3]: in [1], the “reorientation lifetime τR” value came out at 210 ps and the D worked out at 2.24E−5 cm^2s^−1. Moreover, in [1] (pH 7.5), the “q from NMRD profile” value is 1. Also, in data set [2], the “TM” value was found to be 246 ns and the “exchange lifetime τM” value is listed as 246 ns. Besides, in data set [4] (0.1 mmol/kg), the “level of hepatic enhancement maintained for more than 4 h” value is “about 50%” and the “time for which hepatic intensity enhancement was maintained” value is recorded as “more than 4 h”.
Take `O=C([O-])CN1CCNCCN(CC(=O)[O-])CCN(CC(=O)[O-])CC1.[Tb+3]` [Tb-DO3A, reference compound]: the “kH2O, absolute emission depopulation rate constant in H2O” value (shortened to “kH2O … in H2O”) in [10] was determined as 0.88 ms^−1.
As for `O=C([O-])CN1CCN(CC(=O)[O-])CCN(CC(=O)[O-])CCN(CC(=O)[O-])CC1.[Tb+3]` [Tb-DOTA, reference compound], the “kH2O … in H2O” value in data set [10] is 0.48 ms^−1.
On to `O=C([O-])CN1CCN(CCN2CCOCCOCCOCCOCC2)CCN(CC(=O)[O-])CCN(CC(=O)[O-])CC1.[Tb+3]` [TbL1], for which, in data set [10], the “inner-sphere coordinated (bound) water molecules, luminescent measurements” value was “two” and the “kH2O … in H2O” value is given as 0.72 ms^−1.
For `O=C([O-])CN1CCN(CC(=O)[O-])CCN(CC(=O)N2CCOCCOCCN(Cc3ccc4ccccc4n3)CCOCCOCC2)CCN(CC(=O)[O-])CC1.[Tb+3]` [TbL3], in data set [10], the “inner-sphere coordinated (bound) water molecules, luminescent measurements” value is recorded as “only one” and the “kH2O … in H2O” value was found to be 0.50 ms^−1.

The values above are taken from patent US20090104124A1, “Paramagnetic Complexes with Pendant Crown Compounds Showing Improved Targeting- Specificity as MRI Contrast Agents” (priority 2007, published 2009).
